In ChEMBL document CHEMBL4680307, “Potent leads based on CA-19L, an anti-HIV active HIV-1 capsid fragment” (Bioorg Med Chem, 2021):

How the values were obtained:
[1] = system: Human immunodeficiency virus 1; assay: Antiviral activity against HIV-1 NL4-3 in human MT-4 cells assessed as virus induced cytopathic effect incubated for 5 days by MTT assay; assay type: functional, organism-based; conditions: Human immunodeficiency virus 1, NL4-3, MT4, 120 h
[2] = system: Human immunodeficiency virus 1; assay: Antiviral activity against HIV-1 NL(AD8) in human PM1/CCR5 cells assessed as virus induced cytopathic effect incubated for 5 days by MTT assay; assay type: functional, organism-based; conditions: Human immunodeficiency virus 1, NL(AD8), PM1/CCR5, 120 h
[3] = Cytotoxicity against in human MT-4 after 5 days by MTT assay; assay type: cell-based, MT4; conditions: MT-4 cells, time 5 day
[4] = system: Human immunodeficiency virus 1; assay: Antiviral activity against HIV-1 NL4-3 in human MT-4 cells assessed as virus induced cytopathic effect at 25 uM incubated for 5 days by MTT assay; assay type: functional; conditions: Human immunodeficiency virus 1, NL4-3, MT4, 120 h, time 5 day
[5] = system: Human immunodeficiency virus 1; assay: Antiviral activity against HIV-1 NL(AD8) in human PM1/CCR5 cells assessed as virus induced cytopathic effect at 50 uM incubated for 5 days by MTT assay; assay type: functional; conditions: Human immunodeficiency virus 1, NL(AD8), PM1/CCR5, 120 h, time 5 day

| Compound | EC50 [1] [µM] | EC50 [2] [µM] | CC50 at 120 h [3] [µM] | inhibition at 25 µM [4] [%] | inhibition at 50 µM [5] [%] |
| --- | --- | --- | --- | --- | --- |
| CC[C@H](C)[C@H](NC(=O)[C@@H](NC(=O)[C@H](CCCCN)NC(=O)[C@H](CO)NC(=O)[C@H](CC(=O)O)NC(=O)[C@@H]1CCCN1C(=O)[C@H](CC(N)=O)NC(=O)[C@H](C)NC(=O)[C@H](CC(N)=O)NC(=O)[C@H](CCC(N)=O)NC(=O)[C@@H](NC(=O)[C@H](CC(C)C)NC(=O)[C@H](CC(C)C)NC(=O)[C@@H](NC(=O)[C@H](CCC(=O)O)NC(=O)[C@@H](NC(=O)[C@H](CCSC)NC(=O)[C@H](Cc1c[nH]c2ccccc12)NC(=O)[C@H](CC(N)=O)NC(=O)[C@H](CCCCN)NC(=O)[C@@H](NC(=O)[C@H](CCC(=O)O)NC(=O)[C@H](CCC(N)=O)NC(=O)[C@H](CO)NC(C)=O)C(C)C)[C@@H](C)O)[C@@H](C)O)C(C)C)[C@@H](C)O)C(=O)N[C@@H](CC(C)C)C(=O)N[C@@H](CCCCN)C(=O)N[C@@H](C)C(=O)N[C@@H](CC(C)C)C(=O)NCC(=O)N1CCC[C@H]1C(=O)NCC(=O)N[C@@H](C)C(=O)N[C@H](C(=O)NCC(=O)N[C@@H](CSCC(=O)N[C@@H](CCCNC(=N)N)C(=O)N[C@@H](CCCNC(=N)N)C(=O)N[C@@H](CCCNC(=N)N)C(=O)N[C@@H](CCCNC(=N)N)C(=O)N[C@@H](CCCNC(=N)N)C(=O)N[C@@H](CCCNC(=N)N)C(=O)N[C@@H](CCCNC(=N)N)C(=O)N[C@@H](CCCNC(=N)N)C(N)=O)C(N)=O)[C@@H](C)O | 22 | 50 | > 50 |  |  |
| CSCC[C@H](NC(=O)[C@H](Cc1c[nH]c2ccccc12)NC(=O)[C@H](CC(N)=O)NC(=O)[C@H](CCCCN)NC(=O)[C@@H](NC(C)=O)C(C)C)C(=O)N[C@H](C(=O)N[C@@H](CCC(=O)O)C(=O)N[C@H](C(=O)N[C@@H](CC(C)C)C(=O)N[C@@H](CC(C)C)C(=O)N[C@H](C(=O)N[C@@H](CCC(N)=O)C(=O)N[C@@H](CC(N)=O)C(=O)N[C@@H](C)C(=O)N[C@@H](CC(N)=O)C(=O)NCC(=O)N[C@@H](CSCC(=O)N[C@@H](CCCNC(=N)N)C(=O)N[C@@H](CCCNC(=N)N)C(=O)N[C@@H](CCCNC(=N)N)C(=O)N[C@@H](CCCNC(=N)N)C(=O)N[C@@H](CCCNC(=N)N)C(=O)N[C@@H](CCCNC(=N)N)C(=O)N[C@@H](CCCNC(=N)N)C(=O)N[C@@H](CCCNC(=N)N)C(N)=O)C(N)=O)C(C)C)[C@@H](C)O)[C@@H](C)O | > 50 | 50 | > 50 | 27 | 40 |
| CC[C@H](C)[C@H](NC(=O)[C@@H](NC(=O)[C@H](CCCCN)NC(=O)[C@H](CO)NC(=O)[C@H](CC(=O)O)NC(=O)[C@@H]1CCCN1C(=O)[C@H](CC(N)=O)NC(=O)[C@H](C)NC(=O)[C@H](CC(N)=O)NC(=O)[C@H](CCC(N)=O)NC(=O)[C@@H](NC(=O)[C@H](CC(C)C)NC(=O)[C@H](CC(C)C)NC(=O)[C@@H](NC(=O)[C@H](CCC(=O)O)NC(=O)[C@@H](NC(=O)[C@H](CCSC)NC(=O)[C@H](Cc1c[nH]c2ccccc12)NC(=O)[C@H](CC(N)=O)NC(=O)[C@H](CCCCN)NC(=O)[C@@H](NC(=O)[C@H](CCC(=O)O)NC(=O)[C@H](CCC(N)=O)NC(=O)[C@H](CO)NC(C)=O)C(C)C)[C@@H](C)O)[C@@H](C)O)C(C)C)[C@@H](C)O)C(=O)N[C@@H](CC(C)C)C(=O)N[C@@H](CCCCN)C(=O)N[C@@H](C)C(=O)N[C@@H](CC(C)C)C(=O)NCC(=O)N[C@@H](CSCC(=O)N[C@@H](CCCNC(=N)N)C(=O)N[C@@H](CCCNC(=N)N)C(=O)N[C@@H](CCCNC(=N)N)C(=O)N[C@@H](CCCNC(=N)N)C(=O)N[C@@H](CCCNC(=N)N)C(=O)N[C@@H](CCCNC(=N)N)C(=O)N[C@@H](CCCNC(=N)N)C(=O)N[C@@H](CCCNC(=N)N)C(N)=O)C(N)=O | > 25 | 50 | 21 | 39 |  |
| c1cc(CN2CCCNCCNCCCNCC2)ccc1CN1CCCNCCNCCCNCC1 [PLERIXAFOR] | 0.049 | > 50 | > 50 |  |  |
| COC[C@@H](c1ccc(C(F)(F)F)cc1)N1CCN(C2(C)CCN(C(=O)c3c(C)ncnc3C)CC2)C[C@@H]1C [VICRIVIROC] | > 5 | 0.21 | > 5 |  |  |
| Cc1cn([C@H]2C[C@H](N=[N+]=[N-])[C@@H](CO)O2)c(=O)[nH]c1=O [ZIDOVUDINE] | 0.094 | 3.3 | 74 |  |  |
